From patent US10413505B1, “Pharmaceutical compositions and methods of using the same” (priority 2017, dated 2019)
Read-outs that look alike come from different tables or passages of the source.

What was measured:
[1] = Example 1 urinary pharmacokinetics after intranasal administration; assay type: in vivo, human; conditions: healthy subjects, single intranasal 160 mg cocaine HCl; for CL renal / dose excreted: human, urine, 160 mg; for CL renal: inhaled or intranasal; for dose excreted: other: intranasal
Experimental: A single dose of a pharmaceutical composition was administered to both nostrils using cottonoid pledgets. […] Each pledget absorbed approximately 1 mL of pharmaceutical composition (i.e., 40 mg cocaine hydrochloride). Two soaked pledgets were placed into each nasal cavity of the subject and against the anterior septum for 20 minutes; thus, a total dose of 160 mg of cocaine hydrochloride was administered.
Urine samples were collected pre-dose and at the following intervals from the start of intranasal application of the pharmaceutical composition: 0-2 hours, 2-4 hours, 4-8 hours, and 8-12 hours. […] A 25-μL aliquot of each urine sample was processed by liquid-liquid extraction.
Urinary pharmacokinetic parameters were analyzed using noncompartmental methods.

[2] = Example 3 plasma pharmacokinetics, normal hepatic function vs hepatic impairment; conditions: for AUC(0-t) / AUC(0-inf) / Cmax / Tmax / half-life: both, human, 160 mg
[3] = urine 0-12 h, metabolites as cocaine equivalents
[4] = hepatic impairment, single intranasal 160 mg cocaine HCl, plasma
[5] = normal hepatic function, single intranasal 160 mg cocaine HCl, plasma

COC(=O)[C@H]1[C@@H](OC(=O)c2ccccc2)C[C@@H]2CC[C@H]1N2C [Cocaine, cocaine, reference compound]
Total Urinary Recovery (Geometric mean) [1, 3]: 96.5 µg | Total Urinary Recovery (Mean) [1, 3]: 117 µg | Total Urinary Recovery (Median) [1, 3]: 114 µg | CL renal ([1]; read-out: Renal Clearance (Geometric mean) (converted)): 37.2 mL/min | CL renal ([1]; read-out: Renal Clearance (Mean) (converted)): 47.2 mL/min | CL renal ([1]; read-out: Renal Clearance (Median) (converted)): 42.7 mL/min | dose excreted ([1]; urine 0-12 h, metabolites as cocaine equivalents, read-out: Urinary Recovery (Geometric mean)): 0.0603% | dose excreted ([1]; urine 0-12 h, metabolites as cocaine equivalents, read-out: Urinary Recovery (Mean)): 0.0729% | dose excreted ([1]; urine 0-12 h, metabolites as cocaine equivalents, read-out: Urinary Recovery (Median)): 0.0714% | AUClast Ratio Grade B/Normal ([2]; ANOVA): 284.54% | AUClast Ratio Grade C/Normal ([2]; ANOVA): 179.88% | CL/F Ratio Grade B/Normal (GMR) ([2]; ANOVA): 36.25% | CL/F Ratio Grade C/Normal (GMR) ([2]; ANOVA): 55.28% | Cmax Ratio Grade C/Normal ([2]; ANOVA): 68.13% | Cmax Ratio Grade B/Normal ([2]; ANOVA, excludes one outlier subject): 104.89% | AUClast, times higher than normal subjects ([2]; Grade B hepatic impairment): 2.8 times | CL/F (Geometric Least Squares Mean, ANOVA) ([2]; Grade B hepatic impairment): 629 L/h | CL/F, percent reduction vs normal ([2]; Grade B hepatic impairment): 64% | geometric mean Cmax, percent higher than normal ([2]; Grade B hepatic impairment, outlier excluded): 5% | geometric mean Cmax, percent higher than normal ([2]; Grade B hepatic impairment, outlier included): 56% | AUClast, times higher than normal subjects ([2]; Grade C hepatic impairment): 1.8 times | CL/F (Geometric Least Squares Mean, ANOVA) ([2]; Grade C hepatic impairment): 959 L/h | CL/F, percent reduction vs normal ([2]; Grade C hepatic impairment): 45% | geometric mean Cmax, percent lower than normal ([2]; Grade C hepatic impairment): 32% | CL/F (Geometric Least Squares Mean, ANOVA) ([2]; Normal hepatic function): 1735 L/h | geometric mean Cmax, percent lower than normal ([2]; all hepatically impaired individuals, outlier excluded): 7% | geometric mean Cmax, percent higher than normal ([2]; all hepatically impaired individuals, outlier included): 27% | AUC(0-t) ([2]; plasma, inhaled or intranasal, AUC0→t (Geometric mean), hepatic impairment, single intranasal 160 mg cocaine HCl): 189 ng·h/mL | AUC(0-t) ([2]; plasma, inhaled or intranasal, AUC0→t (Geometric mean), normal hepatic function, single intranasal 160 mg cocaine HCl): 79.2 ng·h/mL | AUC(0-t) ([2]; plasma, inhaled or intranasal, AUC0→t (Mean), hepatic impairment, single intranasal 160 mg cocaine HCl): 223 ng·h/mL | AUC(0-t) ([2]; plasma, inhaled or intranasal, AUC0→t (Mean), normal hepatic function, single intranasal 160 mg cocaine HCl): 92.8 ng·h/mL | AUC(0-t) ([2]; plasma, inhaled or intranasal, AUC0→t (Median), hepatic impairment, single intranasal 160 mg cocaine HCl): 176 ng·h/mL | AUC(0-t) ([2]; plasma, inhaled or intranasal, AUC0→t (Median), normal hepatic function, single intranasal 160 mg cocaine HCl): 82.4 ng·h/mL | AUC(0-inf) ([2]; plasma, inhaled or intranasal, AUC0→∞ (Geometric mean), hepatic impairment, single intranasal 160 mg cocaine HCl): 192 ng·h/mL | AUC(0-inf) ([2]; plasma, inhaled or intranasal, AUC0→∞ (Geometric mean), normal hepatic function, single intranasal 160 mg cocaine HCl): 82.4 ng·h/mL | AUC(0-inf) ([2]; plasma, inhaled or intranasal, AUC0→∞ (Mean), hepatic impairment, single intranasal 160 mg cocaine HCl): 227 ng·h/mL | AUC(0-inf) ([2]; plasma, inhaled or intranasal, AUC0→∞ (Mean), normal hepatic function, single intranasal 160 mg cocaine HCl): 95.3 ng·h/mL | AUC(0-inf) ([2]; plasma, inhaled or intranasal, AUC0→∞ (Median), hepatic impairment, single intranasal 160 mg cocaine HCl): 177 ng·h/mL | AUC(0-inf) ([2]; plasma, inhaled or intranasal, AUC0→∞ (Median), normal hepatic function, single intranasal 160 mg cocaine HCl): 83.3 ng·h/mL | Cmax ([2]; plasma, inhaled or intranasal, Cmax (Geometric mean), hepatic impairment, single intranasal 160 mg cocaine HCl): 41.2 ng/mL | Cmax ([2]; plasma, inhaled or intranasal, Cmax (Geometric mean), normal hepatic function, single intranasal 160 mg cocaine HCl): 44.2 ng/mL | Cmax ([2]; plasma, inhaled or intranasal, Cmax (Mean), hepatic impairment, single intranasal 160 mg cocaine HCl): 50.7 ng/mL | Cmax ([2]; plasma, inhaled or intranasal, Cmax (Mean), normal hepatic function, single intranasal 160 mg cocaine HCl): 50.6 ng/mL | Cmax ([2]; plasma, inhaled or intranasal, Cmax (Median), hepatic impairment, single intranasal 160 mg cocaine HCl): 42.6 ng/mL | Cmax ([2]; plasma, inhaled or intranasal, Cmax (Median), normal hepatic function, single intranasal 160 mg cocaine HCl): 53.6 ng/mL | Tmax ([2]; plasma, inhaled or intranasal, Tmax (Geometric mean), hepatic impairment, single intranasal 160 mg cocaine HCl): 49.7 min | Tmax ([2]; plasma, inhaled or intranasal, Tmax (Geometric mean), normal hepatic function, single intranasal 160 mg cocaine HCl): 25.3 min | Tmax ([2]; plasma, inhaled or intranasal, Tmax (Mean), hepatic impairment, single intranasal 160 mg cocaine HCl): 65.4 min | Tmax ([2]; plasma, inhaled or intranasal, Tmax (Mean), normal hepatic function, single intranasal 160 mg cocaine HCl): 25.9 min | Tmax ([2]; plasma, inhaled or intranasal, Tmax (Median), hepatic impairment, single intranasal 160 mg cocaine HCl): 45 min | Tmax ([2]; plasma, inhaled or intranasal, Tmax (Median), normal hepatic function, single intranasal 160 mg cocaine HCl): 30 min | half-life ([2]; plasma, inhaled or intranasal, t1/2 (Geometric mean), hepatic impairment, single intranasal 160 mg cocaine HCl): 299 min | half-life ([2]; plasma, inhaled or intranasal, t1/2 (Geometric mean), normal hepatic function, single intranasal 160 mg cocaine HCl): 397 min | half-life ([2]; plasma, inhaled or intranasal, t1/2 (Mean), hepatic impairment, single intranasal 160 mg cocaine HCl): 325 min | half-life ([2]; plasma, inhaled or intranasal, t1/2 (Mean), normal hepatic function, single intranasal 160 mg cocaine HCl): 487 min | half-life ([2]; plasma, inhaled or intranasal, t1/2 (Median), hepatic impairment, single intranasal 160 mg cocaine HCl): 338 min | half-life ([2]; plasma, inhaled or intranasal, t1/2 (Median), normal hepatic function, single intranasal 160 mg cocaine HCl): 416 min | AUC(0-inf) ([2]; plasma, other: intranasal (drug-soaked pledgets in the nasal cavity), AUCinf, range observed, hepatically impaired patients): 88 to 366 ng·h/mL | AUC(0-t) ([2]; plasma, other: intranasal (drug-soaked pledgets in the nasal cavity), AUClast (Geometric Least Squares Mean, ANOVA), Grade B hepatic impairment): 225 ng·h/mL | AUC(0-t) ([2]; plasma, other: intranasal (drug-soaked pledgets in the nasal cavity), AUClast (Geometric Least Squares Mean, ANOVA), Grade C hepatic impairment): 142 ng·h/mL | AUC(0-t) ([2]; plasma, other: intranasal (drug-soaked pledgets in the nasal cavity), AUClast (Geometric Least Squares Mean, ANOVA), Normal hepatic function): 79.2 ng·h/mL | Cmax ([2]; plasma, other: intranasal (drug-soaked pledgets in the nasal cavity), Cmax (Geometric Least Squares Mean, ANOVA), Grade B hepatic impairment, excludes one subject with anomalous concentration at 7 minutes): 46.4 ng/mL | Cmax ([2]; plasma, other: intranasal (drug-soaked pledgets in the nasal cavity), Cmax (Geometric Least Squares Mean, ANOVA), Grade C hepatic impairment): 30.1 ng/mL | Cmax ([2]; plasma, other: intranasal (drug-soaked pledgets in the nasal cavity), Cmax (Geometric Least Squares Mean, ANOVA), Normal hepatic function): 44.2 ng/mL | Cmax ([2]; plasma, other: intranasal (drug-soaked pledgets in the nasal cavity), Cmax, range observed, hepatically impaired patients): 16.2 to 85.2 ng/mL | Tmax ([2]; plasma, other: intranasal (drug-soaked pledgets in the nasal cavity), Tmax (approximate), normal hepatic function, plasma): ~30 min | Tmax ([2]; plasma, other: intranasal (drug-soaked pledgets in the nasal cavity), Tmax, range observed, hepatically impaired patients): 18.4 to 112 min | plasma exposure after Tmax, times higher than normal hepatic function ([2]; hepatic impairment group): about 2.5 times | AUC0→t (Max) [2, 4]: 523 ng·h/mL | AUC0→t (Min) [2, 4]: 89.5 ng·h/mL | AUC0→∞ (Max) [2, 4]: 528 ng·h/mL | AUC0→∞ (Min) [2, 4]: 90.9 ng·h/mL | Clast (Geometric mean) [2, 4]: 0.270 ng/mL | Clast (Max) [2, 4]: 1.73 ng/mL | Clast (Mean) [2, 4]: 0.393 ng/mL | Clast (Median) [2, 4]: 0.211 ng/mL | Clast (Min) [2, 4]: 0.115 ng/mL | Cmax (Max) [2, 4]: 119 ng/mL | Cmax (Min) [2, 4]: 17.1 ng/mL | Tlast (Geometric mean) [2, 4]: 31.6 h | Tlast (Max) [2, 4]: 32.0 h | Tlast (Mean) [2, 4]: 31.6 h | Tlast (Median) [2, 4]: 32.0 h | Tlast (Min) [2, 4]: 1680 min | Tmax (Max) [2, 4]: 3.00 h | Tmax (Min) [2, 4]: 7.02 min | t1/2 (Geometric mean) [2, 4]: 4.94 h | t1/2 (Max) [2, 4]: 9.86 h | t1/2 (Min) [2, 4]: 87.6 min | AUC0→t (Max) [2, 5]: 235 ng·h/mL | AUC0→t (Min) [2, 5]: 20.0 ng·h/mL | AUC0→∞ (Max) [2, 5]: 237 ng·h/mL | AUC0→∞ (Min) [2, 5]: 21.7 ng·h/mL | Clast (Geometric mean) [2, 5]: 0.188 ng/mL
